# Assay results from patent US20260000642A1 (Tay Therapeutics Limited, priority 2022, published 2026).
# Test system: collagen-induced arthritis in Lewis rats
# Test: Collagen-induced arthritis (CIA) model in rats: body weight, paw volume, clinical scores, clinical observations; as to Detailed Clinical Scores, left forelimb: key of the grades not given here; as to Detailed Clinical Scores, left hind limb: key of the grades not given here; as to Detailed Clinical Scores, right forelimb: key of the grades not given here; as to Detailed Clinical Scores, right hind limb: key of the grades not given here; as to Detailed Clinical Scores, score: key of the grades not given here
# Details: for Detailed Clinical Scores, left forelimb / Detailed Clinical Scores, left hind limb / Detailed Clinical Scores, right forelimb / Detailed Clinical Scores, right hind limb / Detailed Clinical Scores, score: CIA, per animal ID
# [1] = CIA rats, 10 mg/kg, individual animals
# [2] = CIA rats, 30 mg/kg, individual animals
# [3] = CIA rats, 3 mg/kg twice daily for 21 days
# [4] = CIA rats, 30 mg/kg twice daily for 21 days
structure (smiles),measurement,setting,value
"CNC(=O)c1[nH]c(C(=O)NC2CCC2)cc1O[C@@H](C)c1ccccc1 [Example 101, N^5-cyclobutyl-N^2-methyl-3-(1-phenylethoxy)-1H-pyrrole-2,5-dicarboxamide]",amelioration of clinical symptoms associated with CIA,"3 mg/kg, 10 mg/kg and 30 mg/kg twice daily",dose-dependent effect
same,Clinical Observation Day 15,[1],Diarrhea
same,Clinical Observation Day 19,[1],Diarrhea
same,Clinical Observation Day 12,[2],Diarrhea
same,Clinical Observation Day 13,[2],Diarrhea
same,Clinical Observation Day 16,[2],Diarrhea
same,Clinical Observation Day 18,[2],Diarrhea
same,Clinical Observation Day 19,[2],Diarrhea
same,Clinical Observation Day 21,[2],Diarrhea
same,diarrhea over the 21-day period,"CIA rats, 3 mg/kg twice daily",did not have diarrhea
same,effect on hind paw volume relative to CIA + vehicle (group 2),[3],less effective at preventing an increase in paw volume
same,"increase in body weight, day 21 compared to day 0",[3],1.7%
same,animals that gained weight by the end of the study (of 8),"CIA rats, 3 mg/kg twice daily for 21 days (group 5)",7/8
same,animals showing signs of disease (of 8),"CIA rats, 3 mg/kg twice daily, day 12",Three animals
same,animals showing signs of disease (of 8),"CIA rats, 3 mg/kg twice daily, day 14",all animals
same,diarrhea over the 21-day period,"CIA rats, 10 mg/kg twice daily (group 6)",Two different animals
same,"weight change, day 21 compared to day 0","CIA rats, 10 mg/kg twice daily for 21 days",approximately 0.5%
same,animals that gained weight by the end of the study (of 8),"CIA rats, 10 mg/kg twice daily for 21 days (group 6)",3/8
same,effect on hind paw volume relative to CIA + vehicle (group 2),"CIA rats, 10 mg/kg twice daily for 21 days, both paws, p<0.05",significantly decreased relative to group 2 on days 19 and 21
same,animals showing signs of disease (of 8),"CIA rats, 10 mg/kg twice daily, day 19",all animals
same,diarrhea over the 21-day period,"CIA rats, 30 mg/kg twice daily (group 7)",Four different animals
same,effect on hind paw volume relative to CIA + vehicle (group 2),[4],most effective dose at preventing an increase in paw volume
same,"weight change, day 21 compared to day 0",[4],approximately 0.5%
same,animals that gained weight by the end of the study (of 8),"CIA rats, 30 mg/kg twice daily for 21 days (group 7)",3/8
same,animals showing signs of disease (of 8),"CIA rats, 30 mg/kg twice daily, day 12",One animal
same,hind paw volume increase at plateau relative to day 0,"CIA rats, 30 mg/kg twice daily, increase from around day 19",approximately 35%
same,"Detailed Clinical Scores, left forelimb","Day 0, 3 mg/kg",0
same,"Detailed Clinical Scores, left hind limb","Day 0, 3 mg/kg",0
same,"Detailed Clinical Scores, right forelimb","Day 0, 3 mg/kg",0
same,"Detailed Clinical Scores, right hind limb","Day 0, 3 mg/kg",0
same,"Detailed Clinical Scores, score","Day 0, 3 mg/kg",0
same,"Detailed Clinical Scores, left forelimb","Day 0, 10 mg/kg",0
same,"Detailed Clinical Scores, left hind limb","Day 0, 10 mg/kg",0
same,"Detailed Clinical Scores, right forelimb","Day 0, 10 mg/kg",0
same,"Detailed Clinical Scores, right hind limb","Day 0, 10 mg/kg",0
same,"Detailed Clinical Scores, score","Day 0, 10 mg/kg",0
same,"Detailed Clinical Scores, left forelimb","Day 0, 30 mg/kg",0
same,"Detailed Clinical Scores, left hind limb","Day 0, 30 mg/kg",0
same,"Detailed Clinical Scores, right forelimb","Day 0, 30 mg/kg",0
same,"Detailed Clinical Scores, right hind limb","Day 0, 30 mg/kg",0
same,"Detailed Clinical Scores, score","Day 0, 30 mg/kg",0
same,Average animal body weight percent change,"Day 0, CIA + 3 mg/kg",0.00%
same,Mean animal body weight,"Day 0, CIA + 3 mg/kg",165 g
same,Average animal body weight percent change,"Day 0, CIA + 10 mg/kg",0.00%
same,Mean animal body weight,"Day 0, CIA + 10 mg/kg",162 g
same,Average animal body weight percent change,"Day 0, CIA + 30 mg/kg",0.00%
same,Mean animal body weight,"Day 0, CIA + 30 mg/kg",162 g
same,Average animal body weight percent change,"Day 1, CIA + 3 mg/kg",−0.49%
same,Mean animal body weight,"Day 1, CIA + 3 mg/kg",164 g
same,Average animal body weight percent change,"Day 1, CIA + 10 mg/kg",−1.45%
same,Mean animal body weight,"Day 1, CIA + 10 mg/kg",160 g
same,Average animal body weight percent change,"Day 1, CIA + 30 mg/kg",−0.83%
same,Mean animal body weight,"Day 1, CIA + 30 mg/kg",161 g
same,Average animal body weight percent change,"Day 2, CIA + 3 mg/kg",−0.15%
same,Mean animal body weight,"Day 2, CIA + 3 mg/kg",165 g
same,Average animal body weight percent change,"Day 2, CIA + 10 mg/kg",−1.29%
same,Mean animal body weight,"Day 2, CIA + 10 mg/kg",160 g
same,Average animal body weight percent change,"Day 2, CIA + 30 mg/kg",−1.03%
same,Mean animal body weight,"Day 2, CIA + 30 mg/kg",160 g
same,Average animal body weight percent change,"Day 3, CIA + 3 mg/kg",1.01%
same,Mean animal body weight,"Day 3, CIA + 3 mg/kg",167 g
same,Average animal body weight percent change,"Day 3, CIA + 10 mg/kg",0.91%
same,Mean animal body weight,"Day 3, CIA + 10 mg/kg",164 g
same,Average animal body weight percent change,"Day 3, CIA + 30 mg/kg",−1.32%
same,Mean animal body weight,"Day 3, CIA + 30 mg/kg",160 g
same,Average animal body weight percent change,"Day 4, CIA + 3 mg/kg",0.94%
same,Mean animal body weight,"Day 4, CIA + 3 mg/kg",166 g
same,Average animal body weight percent change,"Day 4, CIA + 10 mg/kg",0.99%
same,Mean animal body weight,"Day 4, CIA + 10 mg/kg",164 g
same,Average animal body weight percent change,"Day 4, CIA + 30 mg/kg",0.47%
same,Mean animal body weight,"Day 4, CIA + 30 mg/kg",163 g
